Data on twelve compounds can be found in patent US5185347A, “Piperidine compounds and antiulcer composition containing the same” (Meiji Seika Kaisha Ltd., priority 1990, dated 1993).

Data set [1] deals with Water Immersion Restraint Stress-Induced Ulcer. The data set is described as follows: Test on Water Immersion Restraint Stress-Induced Ulcer. Format: in vivo, Wister male rat. The conditions noted are these: 30 mg/5 ml/kg-b.w. in 0.5% CMC, 1 hour before stress, water immersion restraint 6 hours, 20 to 22° C., ulcer index = sum of longer diameters (mm); for inhibition in vivo at 30 mg/kg: Rattus norvegicus, read-out: Percent Inhibition on Ulceration. How it is done:
1) Test on Water Immersion Restraint Stress-Induced Ulcer:
A 11-week-old Wister male rat having been deprived of food for 18 hours was restrained in a cage and immersed chest-deep in water at 20 to 22° C. for 6 hours to impose a stress. The rat taken out of water was sacrificed by cervical dislocation, the stomach removed, 5 ml of a 5% formalin aqueous solution poured into the stomach, and the whole stomach was soaked in the same solution for 30 minutes. The thus fixed sample was opened along the greater curvature. The longer diameter (mm) of ulcers formed was measured with a slide caliper, and the sum was taken as an ulcer index. Each of test compounds shown in Table 1 below was suspended in a 0.5% carboxymethylcellulose (CMC) solution and administered to the rat (test group) at a dose level of 30 mg/5 ml/kg-b.w. 1 hour before imposition of a stress. Only a 0.5% CMC solution (5 ml) was administered to a control group. A percent inhibition of ulceration was obtained from equation: [formula]

A short description of data set [2]: Toxicity (oral LD50). To be noted: in vivo, orally administering, species not given. From the text:
The compounds of the present invention are of low toxicity.

In data set [3] the test system is Ethanol-Induced Ulcer. The data set is described as follows: Ethanol-Induced Ulcer. Format: in vivo, Donryu male rat. The conditions noted are these: orally, 30 mg/5 ml/kg-b.w. in 0.5% CMC, one hour before 5 ml/kg-b.w. of 100% ethanol. The procedure: 2) Ethanol-Induced Ulcer:
A Donryu male rat having been deprived of food for 48 hours and of water for 24 hours orally received 5 ml/kg-b.w. of 100% ethanol. One hour later, the rat was sacrificed in the same manner as described in (1) above, the stomach removed and treated in the same manner as above. The test compound (the compound of Example 2) was suspended in a 0.5% CMC solution and orally administered to the rat at a dose of 30 mg/5 ml/kg-b.w. one hour before administration of ethanol.

In the case of “5(6)-(2-Acetylamino-2-ethoxycarbonyl)ethyl-l-[2-(2,2,6,6-tetramethylpiperidin-1-yl)]ethyl-2-[2-(2,2,6,6-tetramethylpiperidin-1-yl)ethylthio]benzimidazole [Example 12]”, the “Percent Inhibition on Ulceration” value in data set [1] was 87%.

With `COc1ccc2nc(SCCN3C(C)(C)CCCC3(C)C)[nH]c2c1` [Example 1, 5-Methoxy-2-[2-(2,2,6,6-tetramethylpiperidin-1-yl)ethylthio]benzimidazole], in data set [1], the inhibition in vivo at 30 mg/kg was determined as 92%. In data set [2], this compound gave a 50% lethal dose (LD50) of more than 1000 mg/kg.

Turning to `CCOC(=O)C(Cc1ccc2[nH]c(SCCN3C(C)(C)CCCC3(C)C)nc2c1)NC(=O)c1ccc(Cl)cc1` (stereo not shown) [Example 2], the inhibition in vivo at 30 mg/kg in data set [1] was 97%. Also, in data set [2], the median lethal dose (LD50) is more than 1000 mg/kg. This compound gave an inhibition on erosion in data set [3] of 80%.

Regarding `CC1(C)CCCC(C)(C)N1CCSc1nc2cc(CC(NC(=O)c3ccc(Cl)cc3)C(N)=O)ccc2[nH]1` (stereo not shown) [Example 3, 5-[2-Carbamoyl-2-(p-chlorobenzoyl)amino]ethyl-2-[2-(2,2,6,6-tetramethylpiperidin-1-yl)ethylthio]benzimidazole], in data set [1], the inhibition in vivo at 30 mg/kg was 62%.

Turning to `CC1(C)CCCC(C)(C)N1CCSc1nc2cc(CC(NC(=O)c3ccc(Cl)cc3)C(=O)O)ccc2[nH]1` (stereo not shown) [Example 4, 5-[2-Carboxy-2-(p-chlorobenzoyl)amino]ethyl-2-[2-(2,2,6,6-tetramethylpiperidin-1-yl)ethylthio]benzimidazole], the inhibition in vivo at 30 mg/kg in data set [1] turned out to be 40%.

`CCOC(=O)C(Cc1ccc2[nH]c(SCCN3C(C)(C)CCCC3(C)C)nc2c1)NC(C)=O` (stereo not shown) [Example 5, 5-[2-Acetylamino-2-ethoxycarbonyl)ethyl-2-[2-(2,2,6,6-tetramethylpiperidin-1-yl)ethylthio]benzimidazole]: in data set [1], the inhibition in vivo at 30 mg/kg is 97%. The compound also showed an LD50 in data set [2] of more than 1000 mg/kg.

As to `Cc1ccc2nc(SCCN3C(C)(C)CCCC3(C)C)[nH]c2c1` [Example 6, 5-Methyl-2-[2-(2,2,6,6-tetramethylpiperidin-1-yl)ethylthio]benzimidazole], the inhibition in vivo at 30 mg/kg in data set [1] was 95%.

Turning to `CC1(C)CCCC(C)(C)N1CCSc1nc2cc(CO)ccc2[nH]1` [Example 7], the inhibition in vivo at 30 mg/kg in data set [1] amounted to 97%.

Regarding `COC(=O)c1ccc2[nH]c(SCCN3C(C)(C)CCCC3(C)C)nc2c1` [Example 8], the inhibition in vivo at 30 mg/kg in data set [1] worked out at 98%.

Regarding `CC1(C)CCCC(C)(C)N1CCSc1nc2ccccc2[nH]1` [Example 9], in data set [1], the inhibition in vivo at 30 mg/kg turned out to be 97%.

`Cn1c(SCCN2C(C)(C)CCCC2(C)C)nc2ccccc21` [Example 10]: in data set [1], the inhibition in vivo at 30 mg/kg was found to be 100%.

In the case of `CC1(C)CCCC(C)(C)N1CCSc1nc2ccccc2n1Cc1ccccc1` [Example 11], the inhibition in vivo at 30 mg/kg in data set [1] is 95%.

One may read the LD50 as the dose expected to kill half of the subjects tested.
